In patent US20200163984A1, “USE OF ISOVALERYL SPIRAMYCIN I, II AND/OR III IN MANUFACTURING MEDICAMENT FOR TREATING AND/OR PREVENTING TUMOR, AND MEDICAMENT” (SHENYANG FUYANG PHARMACEUTICAL TECHNOLOGY CO., LTD., priority 2017, published 2020):
In brackets after ≈: the same amount, converted by molar mass.

What was measured:
human glioma cell U251 = conditions: U251, MTT, 48 hours
Procedure: (§1) The purpose of the assay is to evaluate the in vitro cell proliferation inhibition or cytotoxic activity of a tested sample.
(§2) MCF-7, MDA-MB-231, HepG2, A549, H460, H1299, 786-0, 769-P, U251, A172, HeLa, PC3, PANC-1, TE-1, SGC7901, and HT-29 were adherent tumor cells. The adherent tumor cells in the logarithmic growth phase were selected and digested with trypsin, then were prepared into a 4 to 5×10^4/ml cell suspension by a medium containing 10% fetal bovine serum. And the cell suspension was inoculated in a 96-well culture plate, and each well was 100 μL. The 96-well culture plate was cultured at 37° C. and 5% CO2 for 24 hours. The experimental group was replaced with a new culture medium containing different concentrations of the sample to be tested, namely, isovaleryl spiramycin I, isovaleryl spiramycin II, or isovaleryl spiramycin III, while the control group was replaced with a culture medium containing the same volume of solvent. Each group was set up with 3 parallel wells that were cultured at 37° C. and 5% CO2 for 48 hours. After the supernatant was removed, the wells were washed carefully for 3 times with PBS. And 100 μL of freshly prepared culture medium containing 0.5 mg/ml MTT was added to each well for continuous incubation for 4 hours at 37° C. After the supernatant was removed carefully, 150 μL of DMSO was added to each well, and after the material was mixed for 10 minutes with a micro-oscillator, the optical density value was measured at 492 nm with a microplate reader.
(§3) The inhibition rate of the medicament on tumor cell growth is calculated according to the following formula:
(§4) Tumor cell growth inhibition rate (%)=[A492 (negative control)−A492 (dosing group)]/A492 (negative control)×100%
(§5) And the half-inhibitory concentration (IC50) of the sample is determined therefrom.

[1] = system: human renal cell adenocarcinoma cell 769-P; conditions: MTT, 48 hours
Procedure: as §1, §2, §3, §4, §5

[2] = system: human renal clear cell adenocarcinoma cell 786-O; conditions: MTT, 48 hours
Procedure: as §1, §2, §3, §4, §5

[3] = system: human cervical cancer cell HeLa; conditions: MTT, 48 hours
Procedure: as §1, §2, §3, §4, §5

[4] = system: human large cell lung cancer cells H460; conditions: H460, MTT, 48 hours
Procedure: as §1, §2, §3, §4, §5

[5] = system: human esophageal cancer cell TE-1; conditions: TE-1, MTT, 48 hours
Procedure: as §1, §2, §3, §4, §5

[6] = system: human colon cancer cell HT-29; conditions: HT-29, MTT, 48 hours
Procedure: as §1, §2, §3, §4, §5

[7] = system: human pancreatic cancer cell PANC-1; conditions: PANC-1, MTT, 48 hours
Procedure: as §1, §2, §3, §4, §5

[8] = system: human hepatoma cells HepG2; conditions: HepG2, MTT, 48 hours
Procedure: as §1, §2, §3, §4, §5

[9] = system: human large cell lung cancer cells H1299; conditions: H1299, MTT, 48 hours
Procedure: as §1, §2, §3, §4, §5

[10] = system: human prostate cancer cell PC3; conditions: PC3, MTT, 48 hours
Procedure: as §1, §2, §3, §4, §5

[11] = system: human gastric adenocarcinoma cell SGC7901; conditions: SGC-7901, MTT, 48 hours
Procedure: as §1, §2, §3, §4, §5

[12] = system: human breast cancer cells MCF-7; conditions: MCF-7, MTT, 48 hours
Procedure: as §1, §2, §3, §4, §5

[13] = system: human non-small cell lung cancer cells A549; conditions: A549, MTT, 48 hours
Procedure: as §1, §2, §3, §4, §5

[14] = system: human breast cancer cells MDA-MB-231; conditions: MDA-MB-231, MTT, 48 hours
Procedure: as §1, §2, §3, §4, §5

[15] = system: human bladder cancer cell T-24; conditions: T-24, MTT
Description: as §1
(§6) Human breast cancer cells MCF-7 and MDA-MB-231, human hepatoma cells HepG2, human non-small cell lung cancer cells A549, human large cell lung cancer cells H460 and H1299, human renal clear cell adenocarcinoma cell 786-0, human renal cell adenocarcinoma cell 769-P, human glioma cell U251, human glioblastoma cell A172, human tissue lymphoma cell U937, human cervical cancer cell HeLa, human prostate cancer cell PC3, human pancreatic cancer cell PANC-1, human esophageal cancer cell TE-1, human gastric adenocarcinoma cell SGC7901, human colon cancer cell HT-29, human promyelocytic leukemia cell HL-60, human thyroid cancer cell TPC-1, and human bladder cancer cell T-24.
as §3, §4, §5

[16] = system: human thyroid cancer cell TPC-1; conditions: TPC-1, MTT
Description: as §1, §6, §3, §4, §5

IC50 (human glioma cell U251) [µg/mL] | IC50 [1] [µg/mL] | IC50 [2] [µg/mL] | IC50 [3] [µg/mL] | IC50 [4] [µg/mL] | IC50 [5] [µg/mL] | IC50 [6] [µg/mL] | IC50 [7] [µg/mL] | IC50 [8] [µg/mL] | IC50 [9] [µg/mL] | IC50 [10] [µg/mL] | IC50 [11] [µg/mL] | IC50 [12] [µg/mL] | IC50 [13] [µg/mL] | IC50 [14] [µg/mL] | IC50 [15] [µg/mL] | IC50 [16] [µg/mL] | SMILES
11.01 ± 0.32 (≈ 11.9 µM) | 5.09 ± 0.04 (≈ 5.49 µM) | 5.08 ± 0.08 (≈ 5.48 µM) | 10.31 ± 0.27 (≈ 11.1 µM) | 19.31 ± 0.35 (≈ 20.8 µM) | 8.42 ± 1.53 (≈ 9.08 µM) | 17.30 ± 0.52 (≈ 18.7 µM) | 9.96 ± 0.46 (≈ 10.7 µM) | 17.90 ± 1.74 (≈ 19.3 µM) | 24.03 ± 2.07 (≈ 25.9 µM) | 9.39 ± 0.85 (≈ 10.1 µM) | 11.28 ± 1.27 (≈ 12.2 µM) | 20.79 ± 1.57 (≈ 22.4 µM) | 19.93 ± 1.66 (≈ 21.5 µM) | 18.12 ± 0.61 (≈ 19.5 µM) | 18.68 ± 0.58 (≈ 20.1 µM) | 19.97 ± 1.93 (≈ 21.5 µM) | CO[C@@H]1[C@@H](O[C@@H]2O[C@H](C)[C@@H](O[C@H]3C[C@@](C)(O)[C@@H](OC(=O)CC(C)C)[C@H](C)O3)[C@H](N(C)C)[C@H]2O)[C@@H](CC=O)C[C@@H](C)[C@@H](O[C@H]2CC[C@H](N(C)C)[C@@H](C)O2)/C=C/C=C/C[C@@H](C)OC(=O)C[C@H]1O [Isovaleryl spiramycin I, isovaleryl spiramycin I]
35.35 ± 1.57 (≈ 36.5 µM) | 20.61 ± 0.48 (≈ 21.3 µM) | 20.18 ± 0.86 (≈ 20.8 µM) | 33.31 ± 0.40 (≈ 34.4 µM) | 41.16 ± 0.71 (≈ 42.5 µM) | 35.59 ± 2.64 (≈ 36.7 µM) | 31.05 ± 3.23 (≈ 32 µM) | 31.93 ± 0.12 (≈ 32.9 µM) | 37.94 ± 1.71 (≈ 39.1 µM) | 42.24 ± 0.44 (≈ 43.6 µM) | 32.88 ± 0.53 (≈ 33.9 µM) | 39.14 ± 1.21 (≈ 40.4 µM) | 51.14 ± 2.54 (≈ 52.8 µM) | 36.97 ± 2.92 (≈ 38.1 µM) | 49.60 ± 0.39 (≈ 51.2 µM) | 39.85 ± 3.26 (≈ 41.1 µM) | 45.37 ± 2.90 (≈ 46.8 µM) | COC1C(OC(C)=O)CC(=O)OC(C)CC=CC=CC(OC2CCC(N(C)C)C(C)O2)C(C)CC(CC=O)C1OC1OC(C)C(OC2CC(C)(O)C(OC(=O)CC(C)C)C(C)O2)C(N(C)C)C1O (stereo not drawn) [Isovaleryl spiramycin II, isovaleryl spiramycin II]
16.46 ± 1.54 (≈ 16.7 µM) | 10.75 ± 0.56 (≈ 10.9 µM) | 10.52 ± 0.56 (≈ 10.7 µM) | 15.86 ± 0.62 (≈ 16.1 µM) | 28.80 ± 0.19 (≈ 29.3 µM) | 20.19 ± 1.83 (≈ 20.5 µM) | 22.68 ± 2.32 (≈ 23.1 µM) | 13.18 ± 0.23 (≈ 13.4 µM) | 27.42 ± 3.52 (≈ 27.9 µM) | 32.40 ± 0.41 (≈ 33 µM) | 16.37 ± 0.27 (≈ 16.6 µM) | 17.26 ± 0.79 (≈ 17.6 µM) | 32.44 ± 1.18 (≈ 33 µM) | 28.84 ± 1.73 (≈ 29.3 µM) | 29.47 ± 0.28 (≈ 30 µM) | 31.23 ± 1.47 (≈ 31.8 µM) | 29.72 ± 4.02 (≈ 30.2 µM) | CCC(=O)O[C@@H]1CC(=O)O[C@H](C)C/C=C/C=C/[C@H](O[C@H]2CC[C@H](N(C)C)[C@@H](C)O2)[C@H](C)C[C@H](CC=O)[C@H](O[C@@H]2O[C@H](C)[C@@H](O[C@H]3C[C@@](C)(O)[C@@H](OC(=O)CC(C)C)[C@H](C)O3)[C@H](N(C)C)[C@H]2O)[C@H]1OC [Isovaleryl spiramycin III, isovaleryl spiramycin III]
